Tests used:
CCRF-CEM [1] = assay: Cytotoxicity against human vinblastine-resistant CCRF-CEM cells after 72 hrs by XTT assay; assay type: functional, cell-based
MX1 = assay: Cytotoxicity against human MX1 cells after 72 hrs by SRB assay; assay type: functional, cell-based; conditions: MX1, 72 h
CCRF-CEM [2] = assay: Cross-resistance, IC50 for human vinblastine-resistant CCRF-CEM cells to IC50 for human CCRF-CEM cells; assay type: functional
HCT-116 = assay: Cytotoxicity against human HCT116 cells after 72 hrs by SRB assay; assay type: functional, cell-based; conditions: HCT-116, 72 h
CCRF-CEM [3] = assay: Cytotoxicity against human CCRF-CEM cells after 72 hrs by XTT assay; assay type: functional, cell-based
CCRF-CEM [4] = assay: Cytotoxicity against human taxol-resistant CCRF-CEM cells after 72 hrs by XTT assay; assay type: functional, cell-based
CCRF-CEM [5] = assay: Cross-resistance, IC50 for human taxol-resistant CCRF-CEM cells to IC50 for human CCRF-CEM cells; assay type: functional
[6] = Cytotoxicity against human H1299 cells after 72 hrs by WST-1 assay; assay type: functional, cell-based; conditions: NCI-H1299, 72 h
[7] = Cytotoxicity against human OECM1 cells after 72 hrs by WST-1 assay; assay type: functional, cell-based; conditions: OECM1, 72 h
PC-3 = assay: Cytotoxicity against human PC3 cells after 72 hrs by WST-1 assay; assay type: functional, cell-based; conditions: PC-3, 72 h
[8] = Cytotoxicity against human U87 cells after 72 hrs by WST-1 assay; assay type: functional, cell-based, U-87MG ATCC; conditions: U-87 MG
Nucleic Acid = assay: Induction of DNA interstrand cross-linking in human H1299 cells at 100 uM under aerobic condition for 1 hr followed by irradiated with 20 Gy of X-ray by modified comet assay relative to irradiated untreated control; assay type: cell-based

Row | Compound | IC50 (CCRF-CEM [1]) [µM] | IC50 (MX1) [µM] | Ratio IC50 (CCRF-CEM [2]) | IC50 (HCT-116) [µM] | IC50 (CCRF-CEM [3]; read-out: IC50) [µM] | IC50 (CCRF-CEM [4]) [µM] | Ratio IC50 (CCRF-CEM [5]) | IC50 [6] [µM] | IC50 [7] [µM] | IC50 (PC-3) [µM] | IC50 [8] [µM] | Activity (Nucleic Acid) [%] | IC50 (CCRF-CEM [3]) [µM]
1 | CNC(=O)OCc1c(COC(=O)NC)c(-c2c(OC)cccc2OC)n2c1Cc1ccccc1-2 | 0.62 | 5.3 | 0.97 | 1.1 | 0.64 | 0.72 | 1.1 | – | – | – | – | – | –
2 | COc1cc(-c2c(CO)c(CO)c3n2-c2ccccc2C3)cc(OC)c1OC | 0.99 | 17 | 0.45 | 29 | 2.2 | 1.1 | 0.52 | – | – | – | – | – | –
3 | CNC(=O)OCc1c(COC(=O)NC)c(-c2ccc(F)c(F)c2)n2c1Cc1ccccc1-2 | 0.65 | 8.2 | 1 | 0.9 | 0.64 | 0.61 | 0.97 | – | – | – | – | – | –
4 | COc1ccccc1-c1c(CO)c(CO)c2n1-c1ccccc1C2 | 2.7 | 8.7 | 2.6 | 12 | 1 | 1.9 | 1.9 | – | – | – | – | – | –
5 | COc1cccc(OC)c1-c1c(CO)c(CO)c2n1-c1ccccc1C2 | 7.5 | 26 | 0.92 | 43 | 8.1 | 6.2 | 0.76 | – | – | – | – | – | –
6 | OCc1c(CO)c(-c2ccccc2)n2c1Cc1ccccc1-2 | 0.25 | 1.3 | 1 | 1.9 | 0.25 | 0.22 | 0.9 | – | – | – | – | – | –
7 | OCc1c(CO)c(-c2ccc(F)cc2)n2c1Cc1ccccc1-2 | 11 | 22 | 2.5 | 8.7 | 4.5 | 7.2 | 1.6 | – | – | – | – | – | –
8 | CNC(=O)OCc1c(COC(=O)NC)c(-c2ccc(F)cc2)n2c1Cc1ccccc1-2 | 0.28 | 0.74 | 2 | 0.4 | 0.14 | 0.3 | 2.2 | – | – | – | – | – | –
9 | OCc1c(CO)c(-c2ccc(Cl)cc2)n2c1Cc1ccccc1-2 | 4.5 | 6.1 | 1 | 5.7 | 4.3 | 2.4 | 0.55 | – | – | – | – | – | –
10 | CC[C@]1(O)C[C@@H]2CN(CCc3c([nH]c4ccccc34)[C@@](C(=O)OC)(c3cc4c(cc3OC)N(C)[C@H]3[C@@](O)(C(=O)OC)[C@H](OC(C)=O)[C@]5(CC)C=CCN6CC[C@]43[C@@H]65)C2)C1 [VINBLASTINE] | – | – | 107 | – | – | – | 685 | – | – | – | – | – | –
11 | CNC(=O)OCc1c(COC(=O)NC)c(-c2ccc(OC)c(OC)c2)n2c1Cc1ccccc1-2 | 0.5 | 1.8 | 1.4 | 0.66 | 0.35 | 0.39 | 1.1 | – | – | – | – | – | –
12 | CNC(=O)OCc1c(COC(=O)NC)c(-c2ccc(Cl)cc2)n2c1Cc1ccccc1-2 | 2.3 | 9.9 | 0.4 | 8.9 | 5.7 | 3.3 | 0.58 | – | – | – | – | – | –
13 | CNC(=O)OCc1c(COC(=O)NC)c(-c2cc(OC)c(OC)c(OC)c2)n2c1Cc1ccccc1-2 | 14 | 7.2 | 1.2 | 1.9 | 12 | 8.4 | 0.73 | – | – | – | – | – | –
14 | CCc1c(COC(=O)NC)c(COC(=O)NC)c2n1-c1ccccc1C2 | 0.1 | 0.66 | 1.5 | 0.71 | 0.07 | 0.08 | 1.2 | > 50 | 11.8 | > 50 | > 50 | – | –
15 | OCc1c(CO)c(-c2ccc(F)c(F)c2)n2c1Cc1ccccc1-2 | 7.5 | 7 | 1.4 | 11 | 5.2 | 7.5 | 1.4 | – | – | – | – | – | –
16 | COc1ccc(-c2c(CO)c(CO)c3n2-c2ccccc2C3)cc1OC | 1.9 | 11 | 1.8 | 4.3 | 1 | 1.1 | 1.1 | – | – | – | – | – | –
17 | CNC(=O)OCc1c(COC(=O)NC)c(-c2ccccc2)n2c1Cc1ccccc1-2 | 0.55 | 5.9 | 1.6 | 0.75 | 0.36 | 1.7 | 4.7 | – | – | – | – | – | –
18 | CO[C@@]12[C@H](COC(N)=O)C3=C(C(=O)C(C)=C(N)C3=O)N1C[C@@H]1N[C@@H]12 | – | – | – | – | – | – | – | – | – | – | – | 76.5 | –
19 | COc1ccc(-c2c(CO)c(CO)c3n2-c2ccccc2C3)cc1 | 1.6 | 11 | 1.4 | 6.1 | 1.2 | 1.7 | 1.5 | 50.3 | 9.26 | 55.5 | 45.5 | – | –
20 | CNC(=O)OCc1c(COC(=O)NC)c2n(c1C)-c1ccccc1C2 | 0.063 | 0.34 | 0.53 | 0.3 | 0.12 | 0.12 | 0.67 | > 50 | 1.45 | 27.2 | > 50 | – | –
21 | CC(=O)O[C@H]1C(=O)[C@@]2(C)[C@H]([C@H](OC(=O)c3ccccc3)[C@]3(O)C[C@H](OC(=O)[C@H](O)[C@@H](NC(=O)c4ccccc4)c4ccccc4)C(C)=C1C3(C)C)[C@]1(OC(C)=O)CO[C@@H]1C[C@@H]2O [PACLITAXEL] | 0.4 | – | 333 | – | – | 1.2 | 1000 | – | – | – | – | – | 0.0012
